# Where a name gives a salt, the structure may show the parent alone.
# What was measured:
# [1] = target: T1, recombinant full-length WRN protein (1-1432) (Homo sapiens, UniProt Q14191); test: WRN unwinding activity, fluorogenic 384-well assay (Example A); type: biochemical; conditions: WRN unwinding activity, 4 hr; Table 2; read-out: 4 hr UNW pIC50 (converted)
# T1 construct: recombinant full-length WRN protein (1-1432)
# Outline: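 200 pM enzyme (2× stock) preincubated with compound 4 h at ambient temperature, then 200 μM ATP and 12 nM quenched TAMRA-labelled dsDNA (2× stocks) added for 60 min; EDTA-quenched. Buffer 25 mM Tris pH 8.0, 5 mM NaCl, 2 mM MgCl2. Fluorescence at 525/598 nm; pIC50 from four-parameter fit.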
# [2] = tested on: SW48 human colorectal cancer cells (MSI-H cancer cells); test: SW48 cell viability, CellTiter-Glo, 120 hours (Example B); conditions: Homo sapiens, SW48, 120 h, read-out: SW48 pCC50, SW48 cell viability, 120 hours incubation (converted); Table 2
# T1 sequence (Q14191 whole entry): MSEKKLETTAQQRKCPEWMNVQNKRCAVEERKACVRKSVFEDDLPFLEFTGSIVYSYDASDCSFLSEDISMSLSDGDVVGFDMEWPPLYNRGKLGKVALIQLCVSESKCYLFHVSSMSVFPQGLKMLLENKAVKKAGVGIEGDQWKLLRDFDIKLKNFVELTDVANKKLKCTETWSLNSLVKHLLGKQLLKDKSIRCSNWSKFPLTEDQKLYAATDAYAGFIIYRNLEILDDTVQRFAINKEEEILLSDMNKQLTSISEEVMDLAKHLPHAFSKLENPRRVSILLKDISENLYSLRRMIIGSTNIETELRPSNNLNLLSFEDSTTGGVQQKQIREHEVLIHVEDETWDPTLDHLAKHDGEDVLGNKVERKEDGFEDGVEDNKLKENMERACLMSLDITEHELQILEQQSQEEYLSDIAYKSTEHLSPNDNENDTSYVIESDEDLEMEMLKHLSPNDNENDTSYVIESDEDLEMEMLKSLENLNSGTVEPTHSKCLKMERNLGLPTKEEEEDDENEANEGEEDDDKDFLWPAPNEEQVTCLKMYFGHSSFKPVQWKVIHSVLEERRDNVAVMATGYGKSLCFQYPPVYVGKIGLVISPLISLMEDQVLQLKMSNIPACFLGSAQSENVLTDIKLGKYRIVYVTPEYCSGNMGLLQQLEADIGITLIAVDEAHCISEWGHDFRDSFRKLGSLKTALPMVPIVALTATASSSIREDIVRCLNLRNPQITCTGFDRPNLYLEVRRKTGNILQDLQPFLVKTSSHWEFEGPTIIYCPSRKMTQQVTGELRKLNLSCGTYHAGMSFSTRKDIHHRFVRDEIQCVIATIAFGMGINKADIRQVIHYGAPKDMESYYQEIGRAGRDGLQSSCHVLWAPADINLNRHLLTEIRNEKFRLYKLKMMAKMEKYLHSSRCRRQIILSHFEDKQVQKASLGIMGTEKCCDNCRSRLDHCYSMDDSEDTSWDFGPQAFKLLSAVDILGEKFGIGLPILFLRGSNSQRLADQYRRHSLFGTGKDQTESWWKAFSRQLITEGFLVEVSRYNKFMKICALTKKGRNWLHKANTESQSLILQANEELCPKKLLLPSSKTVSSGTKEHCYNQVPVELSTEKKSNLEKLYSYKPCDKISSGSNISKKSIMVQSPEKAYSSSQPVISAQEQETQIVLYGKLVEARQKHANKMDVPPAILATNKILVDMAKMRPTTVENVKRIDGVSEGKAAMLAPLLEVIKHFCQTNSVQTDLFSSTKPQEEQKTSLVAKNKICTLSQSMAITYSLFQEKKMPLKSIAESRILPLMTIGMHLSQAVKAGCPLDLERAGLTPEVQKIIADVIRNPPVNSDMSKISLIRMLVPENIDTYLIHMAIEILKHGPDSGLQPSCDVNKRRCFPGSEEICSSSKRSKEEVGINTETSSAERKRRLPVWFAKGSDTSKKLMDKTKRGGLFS
IC50 [1] [nM],Compound,CC50 [2] [nM]
2.51,"CN(c1ccc([C@H]2CCC[C@@H](C(=O)Nc3ccc(C(F)(F)F)cc3F)[C@@H]2C(=O)O)cc1)S(=O)(=O)c1cccnc1 [Example 95, (1R,2R,6S)-2-((2-fluoro-4-(trifluoromethyl)phenyl)carbamoyl)-6-(4-(N-methylpyridine-3-sulfonamido)phenyl)cyclohexane-1-carboxylic acid]",3160
3.98,"Cc1nc2cc(S(=O)(=O)N(c3ccc([C@H]4CCC[C@@H](C(=O)Nc5ccc(C(F)(F)F)cc5F)[C@@H]4C(=O)O)cc3)C3CC3)ccc2n1C [Example 238, (1R,2S,6R)-2-(4-((N-cyclopropyl-1,2-dimethyl-1H-benzo[d]imidazole)-5-sulfonamido)phenyl)-6-((2-fluoro-4-(trifluoromethyl)phenyl)carbamoyl)cyclohexane-1-carboxylic acid]",2000
3.98,"Cc1nc2cc(S(=O)(=O)N(C)c3ccc([C@H]4CCC[C@@H](C(=O)Nc5ccc(C(C)C)cc5)[C@H]4C(=O)O)cc3)ccc2n1C (single isomer, unassigned) [Example 77]",3980
39.8,"COc1cc(S(=O)(=O)N(C)c2ccc([C@H]3CCC[C@@H](C(=O)Nc4ccc(C(F)(F)F)cc4F)[C@@H]3C(=O)O)cc2)ccc1Br [Example 136, (1R,2S,6R)-2-(4-((4-bromo-3-methoxy-N-methylphenyl)sulfonamido)phenyl)-6-((2-fluoro-4-(trifluoromethyl)phenyl)carbamoyl)cyclohexane-1-carboxylic acid]",3160
251,"Cc1nc2cc(S(=O)(=O)N(C)c3ccc([C@@H]4C[C@H](OCC5CC5)C[C@H](C(=O)Nc5ccc(C(F)(F)F)cc5F)[C@H]4C(=O)O)cc3)ccc2n1C (stereo in doubt) [Example 313, rel-(1R,2R,4R,6S)-4-(cyclopropylmethoxy)-2-((2-fluoro-4-(trifluoromethyl)phenyl)carbamoyl)-6-(4-((N,1,2-trimethyl-1H-benzo[d]imidazole)-5-sulfonamido)phenyl)cyclohexane-1-carboxylic acid]",20000
1.58,"Cc1nc2cc(S(=O)(=O)N(C)c3ccc([C@H]4C[C@@H](O)C[C@@H](C(=O)Nc5ccc(C(F)(F)F)cc5F)[C@@H]4C(=O)O)cc3)ccc2n1C (single isomer, unassigned) [Example 145]",1260
31.6,"CC(=O)N(C)[C@@H]1C[C@H](C(=O)Nc2ccc(C(F)(F)F)cc2F)[C@@H](C(=O)O)[C@H](c2ccc(N(C)S(=O)(=O)c3ccc4c(c3)nc(C)n4C)cc2)C1 (stereo in doubt) [Example 291, rel-(1R,2R,4R,6S)-2-((2-fluoro-4-(trifluoromethyl)phenyl)carbamoyl)-4-(N-methylacetamido)-6-(4-((N,1,2-trimethyl-1H-benzo[d]imidazole)-5-sulfonamido)phenyl)cyclohexane-1-carboxylic acid]",12600
3.98,"O=C(O)[C@@H]1[C@@H](c2ccc(-c3cccnc3)cc2)CCC[C@H]1C(=O)Nc1ccc(C(F)(F)F)cc1F [Example 8, (1R,2R,6S)-2-((2-fluoro-4-(trifluoromethyl)phenyl)carbamoyl)-6-(4-(pyridin-3-yl)phenyl)cyclohexane-1-carboxylic acid]",7940
15.8,"Cc1oncc1-c1ccc([C@H]2CCC[C@@H](C(=O)Nc3ccc(C(F)(F)F)cc3F)[C@@H]2C(=O)O)cc1 [Example 53, (1R,2R,6S)-2-((2-fluoro-4-(trifluoromethyl)phenyl)carbamoyl)-6-(4-(5-methylisoxazol-4-yl)phenyl)cyclohexane-1-carboxylic acid]",7940
398,"Cc1nc2cc(S(=O)(=O)N(C)c3ccc([C@@H]4C[C@@H](N5CC[C@@H](F)C5)C[C@H](C(=O)Nc5ccc(C(F)(F)F)cc5F)[C@H]4C(=O)O)cc3)ccc2n1C (stereo in doubt) [Example 384, rel-(1R*,2R*,4S*,6S*)-2-((2-fluoro-4-(trifluoromethyl)phenyl)carbamoyl)-4-((R)-3-fluoropyrrolidin-1-yl)-6-(4-((N,1,2-trimethyl-1H-benzo[d]imidazole)-5-sulfonamido)phenyl)cyclohexane-1-carboxylic acid]",25100
2.51,"CN(c1ccc([C@H]2CCC[C@@H](C(=O)Nc3ccc(C(F)(F)F)cc3F)[C@@H]2C(=O)O)cc1)S(=O)(=O)c1ccc2c(c1)CCN(C(=O)C(F)(F)F)C2 [Example 111, (1R,2R,6S)-2-((2-fluoro-4-(trifluoromethyl)phenyl)carbamoyl)-6-(4-((N-methyl-2-(2,2,2-trifluoroacetyl)-1,2,3,4-tetrahydroisoquinoline)-6-sulfonamido)phenyl)cyclohexane-1-carboxylic acid]",1580
15.8,"Cc1nc2cc(S(=O)(=O)N(C)c3ccc([C@H]4C[C@H](N5CCC(F)(F)C5)C[C@@H](C(=O)Nc5ccc(C(F)(F)F)cc5F)[C@@H]4C(=O)O)cc3)ccc2n1C (stereo in doubt) [Example 304, rel-(1R,2R,4S,6S)-4-(3,3-difluoropyrrolidin-1-yl)-2-((2-fluoro-4-(trifluoromethyl)phenyl)carbamoyl)-6-(4-((N,1,2-trimethyl-1H-benzo[d]imidazole)-5-sulfonamido)phenyl)cyclohexane-1-carboxylic acid]",12600
100,"N#Cc1cc([C@H]2CCC[C@@H](C(=O)Nc3ccc(C(F)(F)F)cc3F)[C@@H]2C(=O)O)ccc1Br (single isomer, unassigned) [Example 230]",7940
158,"O=C(O)[C@@H]1[C@@H](c2ccc(-c3ccccc3)cc2)CCC[C@H]1C(=O)Nc1ccc(C(F)(F)F)cc1F [Example 11, (1R,2S,6R)-2-([1,1′-biphenyl]-4-yl)-6-((2-fluoro-4-(trifluoromethyl)phenyl)carbamoyl)cyclohexane-1-carboxylic acid]",15800
1.58,"Cc1nc2cc(S(=O)(=O)N(C)c3ccc([C@H]4CCC[C@@H](C(=O)Nc5ccc(C(C)C)cc5)[C@@H]4C(=O)O)cc3)ccc2n1C (single isomer, unassigned) [Example 80]",501
2,"CN(c1ccc([C@H]2CCC[C@@H](C(=O)Nc3ccc(C(F)(F)F)cc3F)[C@@H]2C(=O)O)cc1)S(=O)(=O)c1cccc(C2OCCO2)c1 [Example 118, (1R,2S,6R)-2-(4-((3-(1,3-dioxolan-2-yl)-N-methylphenyl)sulfonamido)phenyl)-6-((2-fluoro-4-(trifluoromethyl)phenyl)carbamoyl)cyclohexane-1-carboxylic acid]",1260
6.31,"Cc1nc2cc(S(=O)(=O)N(C)c3ccc([C@H]4CCC[C@@H](C(=O)Nc5ccc(C(C)C)cc5)[C@H]4C(=O)O)cc3)ccc2n1C (racemic) [Example 75, rac-(1R,2S,6R)-2-((4-isopropylphenyl)carbamoyl)-6-(4-((N,1,2-trimethyl-1H-benzo[d]imidazole)-5-sulfonamido)phenyl)cyclohexane-1-carboxylic acid]",5010
5.01,"Cc1nc2cc(S(=O)(=O)N(C)c3ccc([C@H]4CCC[C@@H](COc5ccc(C(F)(F)F)cc5)[C@@H]4C(=O)O)cc3)ccc2n1CCN [Example 216, (1R,2S,6R)-2-(4-((1-(2-aminoethyl)-N,2-dimethyl-1H-benzo[d]imidazole)-5-sulfonamido)phenyl)-6-((4-(trifluoromethyl)phenoxy)methyl)cyclohexane-1-carboxylic acid, 0.41 formic acid salt]",12600
6.31,"CN(c1ccc([C@H]2CCC[C@@H](C(=O)Nc3ccc(C(F)(F)F)cc3F)[C@@H]2C(=O)O)cc1)S(=O)(=O)c1ccc2nc(O)sc2c1 [Example 102, (1R,2R,6S)-2-((2-fluoro-4-(trifluoromethyl)phenyl)carbamoyl)-6-(4-((2-hydroxy-N-methylbenzo[d]thiazole)-6-sulfonamido)phenyl)cyclohexane-1-carboxylic acid]",10000
1.26,"Cc1nc2cc(S(=O)(=O)N(C)c3ccc([C@H]4CCC[C@H](C(=O)Nc5ccc(C(C)C)cc5)[C@@H]4C(=O)O)cc3)ccc2n1C (single isomer, unassigned) [Example 73]",3980
3.98,"CN(c1ccc([C@H]2CCC[C@@H](C(=O)Nc3ccc(C(F)(F)F)cc3F)[C@@H]2C(=O)O)cc1)S(=O)(=O)c1ccc(S(N)(=O)=O)cc1 [Example 133, (1R,2R,6S)-2-((2-fluoro-4-(trifluoromethyl)phenyl)carbamoyl)-6-(4-((N-methyl-4-sulfamoylphenyl)sulfonamido)phenyl)cyclohexane-1-carboxylic acid]",12600
3.16,"Cc1nc2cc(S(=O)(=O)N(C)c3ccc([C@H]4CCC[C@@H](C(=O)Nc5ccc(C6CCC6)cc5F)[C@@H]4C(=O)O)cc3)ccc2n1C [Example 175, (1R,2R,6S)-2-((4-cyclobutyl-2-fluorophenyl)carbamoyl)-6-(4-((N,1,2-trimethyl-1H-benzo[d]imidazole)-5-sulfonamido)phenyl) cyclohexane-1-carboxylic acid]",1580
2.51,"N#Cc1ccc(-c2ccc([C@H]3CCC[C@@H](C(=O)Nc4ccc(C(F)(F)F)cc4F)[C@@H]3C(=O)O)cc2)nn1 [Example 55, (1R,2S,6R)-2-(4-(6-cyanopyridazin-3-yl)phenyl)-6-((2-fluoro-4-(trifluoromethyl)phenyl)carbamoyl) cyclohexane-1-carboxylic acid]",10000

# Reference: patent US12662451B2, “Chemical compounds and uses thereof” (GLAXOSMITHKLINE INTELLECTUAL PROPERTY (NO.4) LIMITED, priority 2023, dated 2026)
